The values that follow come from patent US6355671B1, “SULFONATED DERIVATIVES OF CYCLIC PHENOL SULFIDES, PROCESS FOR THE PREPARATION THEREOF, […] […] […] PHENOL SULFIDES, METHODS FOR […] RECOVERY […], AND DRUG COMPOSITIONS CONTAINING THE SULFIDES” (Cosmo Research Institute, priority 1997, dated 2002).

Series [1] concerns HIV-1.
Method: The cyclic phenol sulfide (III) was dissolved in the medium used in Example 8 to a concentration of 2.5 mM, and the solution was made into 2-fold serial dilutions to prepare cyclic phenol sulfide (III)-containing medium samples having 11 steps of concentration. Each of the cyclic phenol sulfide (III)-containing medium samples was dispensed into wells of a 6-well plate in 2.5 ml, a culture broth containing 1.64×10^5 cells/ml of MOLT-4 or 1.82×10^4 cells/ml of HIV-1-infected MOLT-4 was dispensed into the resulting wells in 2.5 ml, the cells were cultured at 37° C. for 3 days in a moist incubator containing 5% CO2, the resulting cell density was measured using Celltac MEK-5254 (manufactured by NIHON KOHDEN), and then a portion of the medium containing 10^6 cells was taken out to purify DNA. The number of HIV-1 DNA contained in 500 ng of the cell DNA was determined by competitive nested PCR.
Firstly, 500 ng of each cell DNA sample was mixed with 1 μM of the primers JA9 and JA12, 0.2 mM dNTP, 50 mM KCl, 10 mM Tris-HCl (pH 8.3), 4 mM MgCl2, 5,000 copies of the competitor and 2 units of Taq DNA polymerase manufactured by Roche), and the total volume was adjusted to 100 μl with Milli-Q water. […]
Series [2] deals with MOLT-4 (T cell leukemia cell). The note with it: MOLT-4 cell density after 3 days of culture, read from FIG. 2.
Method: In order to evaluate cytotoxicity of the cyclic phenol sulfide (III) in a human cell line, MOLT-4 (T cell leukemia cell, Riken Gene Bank accession number RCB 0206), was used in the test. The cyclic phenol sulfide (III) was dissolved in a medium (RPMI-1640 containing 10% FCS (fetal calf serum), kanamycin (5,000 U/ml) and streptomycin (5 mg/ml)) to a concentration of 2.5 mM, and the solution was made into 2-fold serial dilutions to prepare cyclic phenol sulfide (III)-containing medium samples having 11 steps of concentration. Each of the cyclic phenol sulfide (III)-containing medium samples was dispensed into wells of a 6-well plate in 2.5 ml, a MOLT-4 culture broth of 2×10^5 cells/ml was dispensed into the resulting wells in 2.5 ml, the cells were cultured at 37° C. for 3 days in a moist incubator containing 5% CO2, and then the cell density was measured using Celltac MEK-5254 (manufactured by NIHON KOHDEN).

Broadly, the IC50 is the point on the concentration scale where inhibition reaches its midpoint. A high value points to weaker potency. By CC50 is commonly meant the concentration that lowers cell viability or growth by half. With `O=S(=O)([O-])c1cc2c(O)c(c1)Sc1cc(S(=O)(=O)[O-])cc(c1O)Sc1cc(S(=O)(=O)[O-])cc(c1O)Sc1cc(S(=O)(=O)[O-])cc(c1O)S2.[Na+].[Na+].[Na+].[Na+]` [cyclic phenol sulfide (III), sodium salt of 25,26,27,28-tetrahydroxy-2,8,14,20-tetrathia[19.3.1.1^3,71^9,131^15,19]octacosa-1(25),3,5,7(28),9,11,13(27),15,17,19(26),21,23-dodecaene-5,11,17,23-tetrasulfonic acid], the half-inhibitory concentration (IC50) in series [1] (HIV-1 DNA concentration after 3 days of infection, MOLT-4 / HIV-1-infected MOLT-4 co-culture, read from FIG. 2) is 40 µM. Besides, the “therapeutic ratio (=CC50/IC50)” value in series [1] (from Example 8 and Example 9) is reported as 18. It took 700 µM to reach half-maximal cytotoxicity in series [2] (CC50).
